Assay results from PubChem BioAssay (NCI).
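Interpolation was linear, between the two tested concentrations surrounding the appropriate level; five concentrations were tested over 48 hours in 96-well plates. Abbreviation: GI50, concentration required for 50% inhibition of growth. The concentration for full growth arrest is given as TGI.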

Assays:
Assay in all cases: inhibition of tumour cell growth, NCI panel, 48 h
SNB-19 CNS = test system: SNB-19 CNS
OVCAR-4 ovarian = test system: OVCAR-4 ovarian
RXF 393 renal = test system: RXF 393 renal
TK-10 renal = test system: TK-10 renal
IGROV1 ovarian = test system: IGROV1 ovarian
MALME-3M melanoma = test system: MALME-3M melanoma
HOP-62 NSCLC = test system: HOP-62 NSCLC
HL-60(TB) leukemia = test system: HL-60(TB) leukemia
KM12 colon = test system: KM12 colon
NCI-H23 lung = test system: NCI-H23 lung

What does the source list for N=C(N)SC(c1ccccc1)c1ccccc1?
TGI (SNB-19 CNS): > 100 µM; TGI (OVCAR-4 ovarian): 37.6 µM; TGI (RXF 393 renal): 19.4 µM; TGI (TK-10 renal): 28.2 µM; TGI (IGROV1 ovarian): 42.8 µM; TGI (MALME-3M melanoma): 34.6 µM; TGI (HOP-62 NSCLC): 41.1 µM; TGI (HL-60(TB) leukemia): 36.8 µM; TGI (KM12 colon): 32.9 µM; TGI (NCI-H23 lung): 28.3 µM

What does the source list for Cc1cc(N2CCCCC2)nc(NCc2cc(Nc3ccnc4cc(Cl)ccc34)ccc2F)n1?
GI50 (SNB-19 CNS): 1.87 µM; TGI (SNB-19 CNS): 6.33 µM; GI50 (OVCAR-4 ovarian): 1.39 µM; TGI (OVCAR-4 ovarian): 2.95 µM; GI50 (RXF 393 renal): 1.79 µM; TGI (RXF 393 renal): 3.47 µM; GI50 (TK-10 renal): 1.96 µM; TGI (TK-10 renal): 3.67 µM; GI50 (HOP-62 NSCLC): 1.4 µM; TGI (HOP-62 NSCLC): 2.89 µM; GI50 (HL-60(TB) leukemia): 1.93 µM; TGI (HL-60(TB) leukemia): 3.97 µM; GI50 (KM12 colon): 1.69 µM; TGI (KM12 colon): 3.29 µM; GI50 (NCI-H23 lung): 1.83 µM; TGI (NCI-H23 lung): 4.92 µM

How did the TGI (SNB-19 CNS) turn out when NS(=O)(=O)c1ccc(C(=O)O)cc1 was run?
Its TGI is over 100 µM.

What about the TGI (OVCAR-4 ovarian) of the same compound?
Its TGI is over 100 µM.

What about the TGI (RXF 393 renal) of the same compound?
Its TGI is over 100 µM.

What about the TGI (TK-10 renal) of the same compound?
The TGI was over 100 µM.

And the TGI (IGROV1 ovarian)?
The TGI was over 100 µM.

What about the TGI (MALME-3M melanoma) of the same compound?
The TGI was over 100 µM.

What about the TGI (HOP-62 NSCLC) of the same compound?
Its TGI is over 100 µM.

And the TGI (HL-60(TB) leukemia)?
The TGI was over 100 µM.

And the TGI (KM12 colon)?
Its TGI is over 100 µM.

And the TGI (NCI-H23 lung)?
Its TGI is over 100 µM.

Which results are given for Cc1nc2ccccc2c(=O)n1Nc1ccc(C(=O)O)cc1?
TGI (SNB-19 CNS): > 100 µM; TGI (OVCAR-4 ovarian): > 100 µM; TGI (RXF 393 renal): > 100 µM; TGI (IGROV1 ovarian): > 100 µM; TGI (MALME-3M melanoma): > 100 µM; TGI (HOP-62 NSCLC): > 100 µM; TGI (HL-60(TB) leukemia): > 100 µM; TGI (KM12 colon): > 100 µM; TGI (NCI-H23 lung): > 100 µM

For O=C1CC(c2ccccc2)NCCCCN2CC(CN1)C(C(O)c1ccccc1)C2=O (configuration not stated), which TGI (SNB-19 CNS) is on record?
The TGI was over 100 µM.

What about the TGI (OVCAR-4 ovarian) of the same compound?
Its TGI is over 100 µM.

What about the TGI (RXF 393 renal) of the same compound?
The TGI was over 100 µM.

And the TGI (TK-10 renal)?
Its TGI is over 100 µM.

What about the TGI (IGROV1 ovarian) of the same compound?
Its TGI is over 100 µM.

What about the TGI (MALME-3M melanoma) of the same compound?
The TGI was over 100 µM.

And the TGI (HOP-62 NSCLC)?
Its TGI is over 100 µM.

What about the TGI (HL-60(TB) leukemia) of the same compound?
Its TGI is over 100 µM.

What about the TGI (KM12 colon) of the same compound?
The TGI was over 100 µM.

And the TGI (NCI-H23 lung)?
The TGI was over 100 µM.

CC(C)(c1ccccc1)c1ccc(Oc2ccc3c(c2)-c2nc-3nc3[nH]c(nc4nc(nc5[nH]c(n2)c2ccc(Oc6ccc(C(C)(C)c7ccccc7)cc6)cc52)-c2cc(Oc5ccc(C(C)(C)c6ccccc6)cc5)ccc2-4)c2ccc(Oc4ccc(C(C)(C)c5ccccc5)cc4)cc32)cc1 was tested. Which TGI (SNB-19 CNS) did it give?
The TGI was over 100 µM.

What about the TGI (RXF 393 renal) of the same compound?
Its TGI is 97 µM.

And the TGI (TK-10 renal)?
The TGI was over 100 µM.

And the TGI (IGROV1 ovarian)?
The TGI was over 100 µM.

And the TGI (MALME-3M melanoma)?
The TGI was over 100 µM.

And the TGI (HOP-62 NSCLC)?
The TGI was over 100 µM.

And the TGI (HL-60(TB) leukemia)?
Its TGI is over 100 µM.

And the TGI (KM12 colon)?
Its TGI is over 100 µM.

What about the TGI (NCI-H23 lung) of the same compound?
Its TGI is over 100 µM.

How did the TGI (SNB-19 CNS) turn out when COc1ccc(C(=O)NNC(=O)c2nsc3ccccc23)cc1 was run?
The TGI was over 100 µM.

And the TGI (OVCAR-4 ovarian)?
Its TGI is over 100 µM.

What about the TGI (RXF 393 renal) of the same compound?
Its TGI is over 100 µM.

And the TGI (TK-10 renal)?
The TGI was over 100 µM.

What about the TGI (IGROV1 ovarian) of the same compound?
Its TGI is over 100 µM.

What about the TGI (HOP-62 NSCLC) of the same compound?
The TGI was over 100 µM.

What about the TGI (HL-60(TB) leukemia) of the same compound?
Its TGI is 82.5 µM.

What about the TGI (KM12 colon) of the same compound?
The TGI was over 100 µM.

And the TGI (NCI-H23 lung)?
The TGI was over 100 µM.

Which TGI (SNB-19 CNS) does the source give for Nc1ccc([As](=O)(O)O)cc1 here?
The TGI was over 100 µM.

What about the TGI (OVCAR-4 ovarian) of the same compound?
Its TGI is over 100 µM.

And the TGI (RXF 393 renal)?
Its TGI is over 100 µM.

What about the TGI (TK-10 renal) of the same compound?
Its TGI is over 100 µM.

And the TGI (IGROV1 ovarian)?
The TGI was over 100 µM.

What about the TGI (MALME-3M melanoma) of the same compound?
Its TGI is over 100 µM.

What about the TGI (HOP-62 NSCLC) of the same compound?
Its TGI is over 100 µM.

And the TGI (HL-60(TB) leukemia)?
Its TGI is over 100 µM.

What about the TGI (KM12 colon) of the same compound?
Its TGI is over 100 µM.

What about the TGI (NCI-H23 lung) of the same compound?
The TGI was over 100 µM.

Which TGI (SNB-19 CNS) does the source give for Cc1cccc(NC(N)=S)c1 here?
Its TGI is over 100 µM.

What about the TGI (OVCAR-4 ovarian) of the same compound?
Its TGI is over 100 µM.

And the TGI (RXF 393 renal)?
The TGI was over 100 µM.

What about the TGI (TK-10 renal) of the same compound?
The TGI was over 100 µM.

And the TGI (MALME-3M melanoma)?
The TGI was over 100 µM.

What about the TGI (HOP-62 NSCLC) of the same compound?
Its TGI is over 100 µM.

What about the TGI (HL-60(TB) leukemia) of the same compound?
Its TGI is over 100 µM.

What about the TGI (KM12 colon) of the same compound?
Its TGI is over 100 µM.

What about the TGI (NCI-H23 lung) of the same compound?
The TGI was over 100 µM.

COc1ccc2c(c1)C(=O)c1c-2n(CCCCl)c(=O)c2cc([N+](=O)[O-])ccc12 was tested. Which GI50 (SNB-19 CNS) did it give?
Its GI50 is under 0.0505 µM.

What about the TGI (SNB-19 CNS) of the same compound?
Its TGI is over 100 µM.

What about the GI50 (OVCAR-4 ovarian) of the same compound?
Its GI50 is 0.224 µM.

And the TGI (OVCAR-4 ovarian)?
The TGI was 33.6 µM.

What about the GI50 (RXF 393 renal) of the same compound?
Its GI50 is 1.58 µM.

What about the TGI (RXF 393 renal) of the same compound?
Its TGI is over 100 µM.

What about the GI50 (TK-10 renal) of the same compound?
Its GI50 is 0.639 µM.

What about the GI50 (IGROV1 ovarian) of the same compound?
The GI50 was 0.0585 µM.

And the TGI (IGROV1 ovarian)?
Its TGI is 6.57 µM.

What about the GI50 (MALME-3M melanoma) of the same compound?
The GI50 was 0.0533 µM.

What about the TGI (MALME-3M melanoma) of the same compound?
Its TGI is 0.461 µM.

And the GI50 (HL-60(TB) leukemia)?
Its GI50 is under 0.037 µM.

What about the TGI (HL-60(TB) leukemia) of the same compound?
The TGI was 0.147 µM.

What about the GI50 (KM12 colon) of the same compound?
The GI50 was 0.271 µM.

What about the GI50 (NCI-H23 lung) of the same compound?
The GI50 was 0.107 µM.
